Results: article PMC8360000 (Clinical Pharmacology and Therapeutics, 2021)
Several values for one entry are separate records, joined by “and”; a condition that tells them apart may be missing. Equal entries are not always repeated.

Legend:
[1] = tested on: P‐gp; experiment: IVIVE of intrinsic CL and Kp,uu,brain using REF and BMEC protein content; parameters: species or system human; settings: for Kp,uu,brain,pred(method 2): 5C model
[2] = tested on: P‐gp; experiment: IVIVE of Kp,uu,brain from in vitro ER using REF; parameters: species or system human; settings: for Kp,uu,brain,pred(method 1) Mean ± SD / Kp,uu,brain,pred(method 1) Individual: predicted from in vitro ER and REF; for Kp,uu,brain,pred(method 1) Mean ± SD: four experiments; for Kp,uu,brain,pred(method 1) Individual: individual experiments 1-4
[3] = tested on: P-gp; experiment: IVIVE of Kp,uu,brain from in vitro ER using REF; parameters: species or system human; settings: human, brain (unbound, Kp,uu)
[4] = tested on: P‐gp; settings: humans, cyclosporine as inhibitor; cited from earlier work

SMILES | Kp,uu,brain,pred(method 2) ([1]; mean ± standard deviation) | IVIV Extrapolated CLi ([1]; mean ± standard deviation, scaled with BMEC protein content) | P/O (predicted/observed value) ([1]; method 2) | P/O (predicted/observed Kp,uu,brain ratio) ([2]; method 1) | Kp,uu,brain,pred(method 1) Mean ± SD [2] | Kp,uu,brain,pred(method 1) Individual [2] | Kp uu [3] | K1 (cerebral uptake CL), impact of P‐gp inhibition [4]
CNC(=O)C(CCN1CCC(O)(c2ccc(Cl)cc2)CC1)(c1ccccc1)c1ccccc1 [N‐desmethyl loperamide] | 0.020 ± 0.014 | 287 ± 88 mL/min | 0.44 | 0.92 | 0.043 ± 0.018 | 0.058 and 0.035 and 0.056 and 0.021 | – | –
CCN(CC)CCNC(=O)c1cc(Cl)c(N)cc1OC [Metoclopramide, metoclopramide] | 0.61 ± 0.10 | – | – | – | 0.74 ± 0.08 | 0.74 and 0.76 and 0.63 and 0.81 | 1.3 | not impacted
